Source: ChEMBL document CHEMBL1143254, “Structure-based design of novel 2-amino-6-phenyl-pyrimido[5',4':5,6]pyrimido[1,2-a]benzimidazol-5(6H)-ones as potent and orally active inhibitors of lymphocyte specific kinase (Lck): synthesis, SAR, and in vivo anti-inflammatory activity” (J Med Chem, 2008)
Values after ≈ are worked out from the molar mass of the structure shown.

Legend:
[1] = Solubility in simulated intestinal fluid at pH 6.8; type: physicochemical
T-cell [2] = assay: Inhibition of anti-CD3/CD28-induced IL2 production in human T cells; type: functional, cell-based
[3] = biological target: Proto-oncogene tyrosine-protein kinase Src (Homo sapiens, UniProt P12931); assay: Inhibition of Src by HTRF assay
[4] = biological target: Mitogen-activated protein kinase 14 (Homo sapiens, UniProt Q16539); assay: Inhibition of p38-alpha by HTRF assay
Lymphocyte = assay: Inhibition of T cell activation in human peripheral blood lymphocytes by mixed lymphocyte reaction; type: functional, cell-based
[5] = biological target: Tyrosine-protein kinase Lck (Homo sapiens, UniProt P06239)
Description: Inhibition of Lck by HTRF assay

[6] = biological target: Vascular endothelial growth factor receptor 2 (Homo sapiens, UniProt P35968); assay: Inhibition of KDR by HTRF assay
[7] = biological target: Mitogen-activated protein kinase 9 (Homo sapiens, UniProt P45984); assay: Inhibition of JNK2 by HTRF assay
[8] = Half life in Sprague-Dawley rat at 2 mg/kg, iv; type: ADME, organism-based; set-up: dose 2 mg/kg, route intravenous; settings: in vivo
Mus musculus [9] = assay: Inhibition of anti-CD3-induced IL2 production in BALB/c mouse serum at 10 mg/kg, po by ELISA relative to control; type: functional
[10] = AUC in collagen-induced arthritis Lewis rat; type: ADME, organism-based; settings: plasma
Mus musculus [11] = assay: Inhibition of anti-CD3-induced IL2 production in BALB/c mouse serum at 30 mg/kg, po by ELISA relative to control; type: functional
[12] = Clearance in Sprague-Dawley rat at 2 mg/kg, iv; type: ADME, organism-based; set-up: dose 2 mg/kg, route intravenous; settings: in vivo
[13] = biological target: Mitogen-activated protein kinase 3 (Homo sapiens, UniProt P27361); assay: Inhibition of Erk1 by HTRF assay
Mus musculus [14] = species: Mus musculus; assay: Inhibition of anti-CD3-induced IL2 production in BALB/c mouse serum by ELISA; type: functional
[15] = Oral bioavailability in Sprague-Dawley rat at 5 mg/kg; type: ADME, organism-based; settings: in vivo
[16] = biological target: Tyrosine-protein kinase BTK (Homo sapiens, UniProt Q06187); assay: Inhibition of Btk by HTRF assay
Angiopoietin-1 receptor = Angiopoietin-1 receptor (Homo sapiens, UniProt Q02763); assay: Inhibition of Tie-2 by HTRF assay
Rattus norvegicus [17] = assay: Antiinflammatory activity against collagen-induced arthritis in po dosed Lewis rat assessed as reduction of paw swelling; type: functional
[18] = biological target: Mitogen-activated protein kinase 10 (Homo sapiens, UniProt P53779); assay: Inhibition of JNK3 by HTRF assay
[19] = AUC in Mycobacterium tuberculosis H37Ra-induced arthritis Lewis rat; type: ADME, organism-based; settings: plasma
T-cell [20] = assay: Inhibition of anti-CD3/CD28-induced IL2 secretion in human T cells stimulated with phorbol myristic acid and calcium ionophore
Rattus norvegicus [21] = assay: Inhibition of Mycobacterium tuberculosis H37Ra-induced arthritis in Lewis rat assessed as reduction of paw swelling at 20 mg/kg, po daily from day 9 to day 17 relative to control; type: functional
[22] = biological target: Mast/stem cell growth factor receptor Kit (Homo sapiens, UniProt P10721); assay: Inhibition of c-Kit by HTRF assay
Jurkat = assay: Cytotoxicity against human Jurkat T cells assessed as cell viability after 72 hrs
[23] = Cmax in Mycobacterium tuberculosis H37Ra-induced arthritis Lewis rat; type: ADME, organism-based; settings: in vivo
[24] = AUC (0 to infinity) in Sprague-Dawley rat at 5 mg/kg, po; type: ADME, organism-based; set-up: time infinity, dose 5 mg/kg, route oral; settings: plasma
[25] = Cmax in Sprague-Dawley rat at 5 mg/kg, po; type: ADME, organism-based; set-up: dose 5 mg/kg, route oral; settings: in vivo
Rattus norvegicus [26] = assay: Antiinflammatory activity against collagen-induced arthritis in Lewis rat assessed as reduction of paw swelling at 1 mg/kg, po qd for 7 days relative to control; type: functional; set-up: scale not given: the % may be the effect or the level left
Rattus norvegicus [27] = assay: Inhibition of Mycobacterium tuberculosis H37Ra-induced arthritis in po dosed Lewis rat assessed as reduction of paw swelling; type: functional
[28] = biological target: Tyrosine-protein kinase ZAP-70 (Homo sapiens, UniProt P43403); assay: Inhibition of ZAP-70 by HTRF assay
Mus musculus [29] = assay: Inhibition of anti-CD3-induced IL2 production in BALB/c mouse serum at 3 mg/kg, po by ELISA relative to control; type: functional
[30] = Inhibition of anti-CD3/CD28-induced human T cell proliferation
Rattus norvegicus [31] = assay: Antiinflammatory activity against collagen-induced arthritis in Lewis rat assessed as reduction of paw swelling at 10 mg/kg, po qd for 7 days relative to control; type: functional; set-up: scale not given: the % may be the effect or the level left
[32] = biological target: Tyrosine-protein kinase Lyn (Homo sapiens, UniProt P07948); assay: Inhibition of Lyn by HTRF assay
[33] = Tmax in Sprague-Dawley rat at 5 mg/kg, po; type: ADME, organism-based; set-up: dose 5 mg/kg, route oral; settings: in vivo
[34] = AUC (0 to infinity) in Sprague-Dawley rat at 2 mg/kg, iv; type: ADME, organism-based; set-up: time infinity, dose 2 mg/kg, route intravenous; settings: plasma
Rattus norvegicus [35] = assay: Inhibition of Mycobacterium tuberculosis H37Ra-induced arthritis in Lewis rat assessed as reduction of paw swelling at 10 mg/kg, po daily from day 9 to day 17 relative to control; type: functional
[36] = biological target: Tyrosine-protein kinase ITK/TSK (Homo sapiens, UniProt Q08881); assay: Inhibition of Itk by HTRF assay
Rattus norvegicus [37] = assay: Antiinflammatory activity against collagen-induced arthritis in Lewis rat assessed as reduction of paw swelling at 3 mg/kg, po qd for 7 days relative to control; type: functional; set-up: scale not given: the % may be the effect or the level left
[38] = Volume of distribution at steady state in Sprague-Dawley rat at 2 mg/kg, iv; type: ADME, organism-based; set-up: dose 2 mg/kg, route intravenous; settings: in vivo, read-out: Vdss
[39] = biological target: Ribosomal protein S6 kinase alpha-5 (Homo sapiens, UniProt O75582); assay: Inhibition of MSK1 by HTRF assay
Rattus norvegicus [40] = assay: Inhibition of Mycobacterium tuberculosis H37Ra-induced arthritis in Lewis rat assessed as reduction of paw swelling at 60 mg/kg, po daily from day 9 to day 17 relative to control; type: functional
[41] = biological target: Tyrosine-protein kinase SYK (Homo sapiens, UniProt P43405); assay: Inhibition of Syk by HTRF assay
[42] = Cmax in collagen-induced arthritis Lewis rat; type: ADME, organism-based; settings: in vivo
[43] = biological target: Serine/threonine-protein kinase B-raf (Homo sapiens, UniProt P15056); assay: Inhibition of b-Raf by HTRF assay
Rattus norvegicus [44] = assay: Antiinflammatory activity against collagen-induced arthritis in Lewis rat assessed as reduction of paw swelling at 0.3 mg/kg, po qd for 7 days relative to control; type: functional; set-up: scale not given: the % may be the effect or the level left
[45] = biological target: Tyrosine-protein kinase JAK3 (Homo sapiens, UniProt P52333); assay: Inhibition of JAK3 by HTRF assay

Sequence of Proto-oncogene tyrosine-protein kinase Src (P12931 2-536 limits assumed): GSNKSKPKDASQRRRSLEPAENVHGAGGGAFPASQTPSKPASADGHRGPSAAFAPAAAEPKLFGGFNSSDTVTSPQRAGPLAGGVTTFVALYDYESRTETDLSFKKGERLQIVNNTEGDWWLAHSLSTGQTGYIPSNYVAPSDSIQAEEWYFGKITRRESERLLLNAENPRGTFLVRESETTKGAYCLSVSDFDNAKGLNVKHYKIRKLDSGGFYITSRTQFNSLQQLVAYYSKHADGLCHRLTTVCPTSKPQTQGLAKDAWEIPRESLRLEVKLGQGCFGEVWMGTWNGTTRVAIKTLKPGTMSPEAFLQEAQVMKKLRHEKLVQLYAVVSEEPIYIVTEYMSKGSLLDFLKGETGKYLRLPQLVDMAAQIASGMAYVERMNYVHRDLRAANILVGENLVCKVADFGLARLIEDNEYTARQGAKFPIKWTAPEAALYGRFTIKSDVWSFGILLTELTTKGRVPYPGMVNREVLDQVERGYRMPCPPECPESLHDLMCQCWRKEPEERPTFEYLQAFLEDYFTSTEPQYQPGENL
Sequence of Tyrosine-protein kinase Lck (P06239 whole entry): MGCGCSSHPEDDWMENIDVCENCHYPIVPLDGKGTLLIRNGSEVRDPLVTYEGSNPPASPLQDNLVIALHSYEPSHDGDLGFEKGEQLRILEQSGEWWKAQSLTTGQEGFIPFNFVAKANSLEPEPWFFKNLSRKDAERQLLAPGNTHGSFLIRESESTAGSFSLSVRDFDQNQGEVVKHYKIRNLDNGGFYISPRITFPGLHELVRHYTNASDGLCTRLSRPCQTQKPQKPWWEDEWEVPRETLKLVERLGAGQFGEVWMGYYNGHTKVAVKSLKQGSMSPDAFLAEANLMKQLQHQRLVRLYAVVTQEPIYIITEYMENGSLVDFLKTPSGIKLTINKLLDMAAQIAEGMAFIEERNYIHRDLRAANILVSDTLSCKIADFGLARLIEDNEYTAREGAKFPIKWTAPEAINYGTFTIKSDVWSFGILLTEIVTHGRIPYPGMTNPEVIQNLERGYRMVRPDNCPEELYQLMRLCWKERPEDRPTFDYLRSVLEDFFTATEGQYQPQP
Sequence of Mitogen-activated protein kinase 14 (Q16539 whole entry): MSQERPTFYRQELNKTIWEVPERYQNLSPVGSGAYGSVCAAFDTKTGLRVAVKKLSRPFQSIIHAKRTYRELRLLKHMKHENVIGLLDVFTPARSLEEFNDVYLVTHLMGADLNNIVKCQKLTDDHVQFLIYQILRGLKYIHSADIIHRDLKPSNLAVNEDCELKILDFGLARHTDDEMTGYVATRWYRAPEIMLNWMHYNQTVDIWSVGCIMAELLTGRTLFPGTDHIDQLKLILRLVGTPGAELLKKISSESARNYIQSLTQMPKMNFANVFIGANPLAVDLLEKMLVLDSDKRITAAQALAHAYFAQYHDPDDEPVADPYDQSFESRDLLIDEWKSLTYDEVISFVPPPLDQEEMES
Sequence of Vascular endothelial growth factor receptor 2 (P35968 whole entry): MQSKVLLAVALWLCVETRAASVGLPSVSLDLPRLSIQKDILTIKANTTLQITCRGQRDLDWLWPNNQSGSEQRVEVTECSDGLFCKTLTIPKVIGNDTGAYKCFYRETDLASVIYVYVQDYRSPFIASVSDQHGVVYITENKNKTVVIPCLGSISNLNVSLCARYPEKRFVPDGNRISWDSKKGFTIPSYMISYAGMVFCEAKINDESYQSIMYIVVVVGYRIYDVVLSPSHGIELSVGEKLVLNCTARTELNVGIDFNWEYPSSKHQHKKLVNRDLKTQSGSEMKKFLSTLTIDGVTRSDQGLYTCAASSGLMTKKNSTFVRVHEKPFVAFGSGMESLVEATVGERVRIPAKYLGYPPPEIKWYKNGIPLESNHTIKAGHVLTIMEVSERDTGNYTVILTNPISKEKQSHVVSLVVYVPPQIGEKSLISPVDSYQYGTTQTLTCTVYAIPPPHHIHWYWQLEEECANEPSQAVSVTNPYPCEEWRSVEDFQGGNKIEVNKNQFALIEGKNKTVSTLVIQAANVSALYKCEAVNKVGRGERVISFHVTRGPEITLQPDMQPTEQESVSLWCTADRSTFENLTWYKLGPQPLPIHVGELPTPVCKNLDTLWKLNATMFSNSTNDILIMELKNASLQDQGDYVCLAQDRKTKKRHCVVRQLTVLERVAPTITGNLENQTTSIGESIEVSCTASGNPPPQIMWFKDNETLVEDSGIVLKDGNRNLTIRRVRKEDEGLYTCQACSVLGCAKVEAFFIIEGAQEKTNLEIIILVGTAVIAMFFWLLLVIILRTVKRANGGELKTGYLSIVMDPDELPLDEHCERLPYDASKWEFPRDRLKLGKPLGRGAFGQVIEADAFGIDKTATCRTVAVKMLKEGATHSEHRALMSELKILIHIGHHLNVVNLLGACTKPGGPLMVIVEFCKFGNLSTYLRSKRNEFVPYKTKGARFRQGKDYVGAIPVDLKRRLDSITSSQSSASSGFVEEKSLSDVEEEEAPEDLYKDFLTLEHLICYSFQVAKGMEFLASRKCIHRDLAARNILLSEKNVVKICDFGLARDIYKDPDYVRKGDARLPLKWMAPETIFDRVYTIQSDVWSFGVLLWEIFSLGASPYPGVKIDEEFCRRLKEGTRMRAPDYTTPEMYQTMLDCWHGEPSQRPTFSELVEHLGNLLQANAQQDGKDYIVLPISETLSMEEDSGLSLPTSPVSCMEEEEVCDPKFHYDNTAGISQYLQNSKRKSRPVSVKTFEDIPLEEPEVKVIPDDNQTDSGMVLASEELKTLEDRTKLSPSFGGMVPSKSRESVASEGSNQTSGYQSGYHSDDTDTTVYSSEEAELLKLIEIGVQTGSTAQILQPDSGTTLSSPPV
Sequence of Angiopoietin-1 receptor (Q02763 whole entry): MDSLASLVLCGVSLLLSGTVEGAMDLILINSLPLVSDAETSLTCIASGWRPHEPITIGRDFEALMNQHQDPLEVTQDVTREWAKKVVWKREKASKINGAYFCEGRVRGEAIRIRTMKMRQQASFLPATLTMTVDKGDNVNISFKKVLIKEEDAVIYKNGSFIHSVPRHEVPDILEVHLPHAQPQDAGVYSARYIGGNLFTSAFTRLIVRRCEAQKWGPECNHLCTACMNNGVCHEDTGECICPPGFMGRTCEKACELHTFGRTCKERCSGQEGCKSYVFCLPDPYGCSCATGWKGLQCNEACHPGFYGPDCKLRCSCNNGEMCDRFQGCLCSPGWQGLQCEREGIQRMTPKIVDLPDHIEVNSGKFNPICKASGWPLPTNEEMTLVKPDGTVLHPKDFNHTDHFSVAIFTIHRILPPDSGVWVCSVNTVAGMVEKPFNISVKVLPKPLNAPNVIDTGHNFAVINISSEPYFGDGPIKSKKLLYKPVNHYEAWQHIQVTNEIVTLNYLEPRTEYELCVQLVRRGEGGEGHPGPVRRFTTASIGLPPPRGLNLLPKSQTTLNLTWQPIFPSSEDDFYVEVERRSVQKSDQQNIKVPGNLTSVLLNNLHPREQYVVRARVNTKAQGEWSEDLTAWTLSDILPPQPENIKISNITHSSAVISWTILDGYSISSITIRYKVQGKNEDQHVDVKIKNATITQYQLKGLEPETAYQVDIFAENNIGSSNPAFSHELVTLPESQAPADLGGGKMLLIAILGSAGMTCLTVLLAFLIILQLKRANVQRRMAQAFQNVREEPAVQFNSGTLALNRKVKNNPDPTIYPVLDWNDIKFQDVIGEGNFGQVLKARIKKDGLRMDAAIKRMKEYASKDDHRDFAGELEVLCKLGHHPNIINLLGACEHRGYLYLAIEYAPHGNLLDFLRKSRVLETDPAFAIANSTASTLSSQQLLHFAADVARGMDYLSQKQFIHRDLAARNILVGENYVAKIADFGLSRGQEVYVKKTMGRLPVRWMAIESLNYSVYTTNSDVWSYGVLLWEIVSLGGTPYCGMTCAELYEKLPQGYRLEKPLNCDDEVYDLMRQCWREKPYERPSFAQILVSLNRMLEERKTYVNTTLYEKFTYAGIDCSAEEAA
Sequence of Mast/stem cell growth factor receptor Kit (P10721 whole entry): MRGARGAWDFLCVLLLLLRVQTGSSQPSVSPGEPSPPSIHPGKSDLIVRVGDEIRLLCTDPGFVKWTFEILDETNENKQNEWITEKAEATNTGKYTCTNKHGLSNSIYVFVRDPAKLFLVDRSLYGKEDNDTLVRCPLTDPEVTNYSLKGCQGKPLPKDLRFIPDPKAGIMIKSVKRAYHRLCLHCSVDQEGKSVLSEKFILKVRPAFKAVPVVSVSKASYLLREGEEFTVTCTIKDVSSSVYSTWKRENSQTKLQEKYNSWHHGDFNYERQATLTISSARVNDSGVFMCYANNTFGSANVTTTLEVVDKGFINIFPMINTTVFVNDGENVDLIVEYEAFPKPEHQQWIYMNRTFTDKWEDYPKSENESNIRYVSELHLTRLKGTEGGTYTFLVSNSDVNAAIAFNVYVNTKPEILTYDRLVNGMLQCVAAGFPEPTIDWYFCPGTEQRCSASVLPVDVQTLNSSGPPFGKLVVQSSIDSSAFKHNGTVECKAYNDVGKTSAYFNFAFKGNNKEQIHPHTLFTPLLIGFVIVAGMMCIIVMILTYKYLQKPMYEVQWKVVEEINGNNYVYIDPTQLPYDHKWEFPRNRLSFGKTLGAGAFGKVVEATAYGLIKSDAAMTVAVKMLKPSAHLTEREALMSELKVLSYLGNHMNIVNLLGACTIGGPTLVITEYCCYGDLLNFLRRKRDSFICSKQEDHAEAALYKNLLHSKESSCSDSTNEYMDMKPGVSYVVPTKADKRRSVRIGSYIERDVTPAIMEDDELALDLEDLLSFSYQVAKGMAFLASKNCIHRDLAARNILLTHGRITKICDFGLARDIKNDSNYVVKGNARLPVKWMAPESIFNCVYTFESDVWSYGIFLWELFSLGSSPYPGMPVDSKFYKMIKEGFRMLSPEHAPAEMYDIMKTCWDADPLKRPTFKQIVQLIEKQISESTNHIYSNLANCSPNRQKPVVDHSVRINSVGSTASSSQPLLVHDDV

COc1cc(Nc2ncc3c(=O)n(-c4c(C)cccc4C)c4nc5ccccc5n4c3n2)ccc1OCCCN1CCN(C)CC1
solubility [1]: > 200 µg/mL
IC50 (T-cell [2]): 1500 nM
IC50 [3]: 180 nM
IC50 [4]: > 10000 nM
IC50 (Lymphocyte): 140 nM
IC50 [5]: 12 nM
IC50 [6]: 5000 nM

CN1CCN(c2ccc(Nc3ncc4c(=O)n(-c5c(Cl)cccc5Cl)c5nc6ccccc6n5c4n3)cc2)CC1
IC50 [3]: 49 nM
IC50 (Lymphocyte): 1100 nM
IC50 [5]: 10 nM
IC50 [6]: 530 nM

COc1ccc(Cl)cc1-n1c(=O)c2cnc(Nc3ccc(N4CCN(C)CC4)cc3)nc2n2c3ccccc3nc12
IC50 [3]: 1400 nM
IC50 (Lymphocyte): 1000 nM
IC50 [5]: 23 nM
IC50 [6]: > 25000 nM

CCCCOc1ccc(-n2c(=O)c3cnc(Nc4ccc(N5CCN(C)CC5)cc4)nc3n3c4ccccc4nc23)cc1
IC50 [3]: 8300 nM
IC50 [5]: 4600 nM
IC50 [6]: > 25000 nM

COc1cc(Nc2ncc3c(=O)n(-c4c(C)cccc4C)c4nc5ccccc5n4c3n2)cc(OC)c1OCCN1CCOCC1
solubility [1]: 18 µg/mL (≈ 29 µM)
IC50 (T-cell [2]): 360 nM
IC50 [3]: 44 nM
IC50 [4]: > 10000 nM
IC50 (Lymphocyte): 180 nM
IC50 [5]: 10 nM
IC50 [6]: 1700 nM

COc1cc(Nc2ncc3c(=O)n(-c4c(C)cccc4C)c4nc5ccccc5n4c3n2)ccc1OCCN1CCN(C)CC1
IC50 (T-cell [2]): 16000 nM
IC50 [3]: 240 nM
IC50 [4]: > 10000 nM
IC50 (Lymphocyte): 150 nM
IC50 [5]: 19 nM
IC50 [6]: 5500 nM

Cc1cccc(C)c1-n1c(=O)c2cnc(Nc3ccc(OCCN4CCN(C)CC4)c(F)c3)nc2n2c3ccccc3nc12
IC50 (T-cell [2]): 2700 nM
IC50 [3]: 160 nM
IC50 [4]: > 10000 nM
IC50 (Lymphocyte): 510 nM
IC50 [5]: 23 nM
IC50 [6]: 7400 nM

Cc1cccc(C)c1-n1c(=O)c2cnc(Nc3ccc(OCCCN4CCCCC4)cc3)nc2n2c3ccccc3nc12
solubility [1]: 101 µg/mL (≈ 176 µM)
IC50 (T-cell [2]): 3600 nM
IC50 [3]: 160 nM
IC50 [4]: 4300 nM
IC50 (Lymphocyte): 370 nM
IC50 [5]: 12 nM
IC50 [6]: 5100 nM

Cc1cccc(-n2c(=O)c3cnc(Nc4ccc(N5CCN(C)CC5)cc4)nc3n3c4ccccc4nc23)c1
IC50 [3]: 1000 nM
IC50 [5]: 96 nM
IC50 [6]: > 25000 nM

Cc1cccc(C)c1-n1c(=O)c2cnc(Nc3ccc(N4CCN(C)CC4)cc3)nc2n2c3ccccc3nc12
solubility [1]: 153 µg/mL (≈ 288 µM)
IC50 (T-cell [2]): 460 nM
IC50 [7]: > 40000 nM
half-life [8]: 3.12 h
inhibition in vivo at 10 mg/kg (Mus musculus [9]): 28%
AUC [10]: 3.3 µM·h
inhibition in vivo at 30 mg/kg (Mus musculus [11]): 56%
clearance [12]: 30 mL/min/kg
IC50 [13]: > 100000 nM
ED50 (Mus musculus [14]): 26 mg/kg
bioavailability [15]: 17%
IC50 [16]: 410 nM
IC50 (Angiopoietin-1 receptor): 750 nM
IC50 [4]: > 10000 nM
ED50 (Rattus norvegicus [17]): 3.2 mg/kg
IC50 [18]: 7300 nM
AUC [19]: 2.7 µM·h
IC50 (T-cell [20]): 5800 nM
inhibition in vivo at 20 mg/kg (Rattus norvegicus [21]): 64%
IC50 [22]: 560 nM
IC50 (Jurkat): 490 nM
Cmax [23]: 700 nM
AUC(0-inf) [24]: 862 ng·h/mL
Cmax [25]: 82 ng/mL
Activity (Rattus norvegicus [26]): 21%
ED50 (Rattus norvegicus [27]): 24 mg/kg
IC50 (Lymphocyte): 47 nM
IC50 [28]: 1500 nM
inhibition in vivo at 3 mg/kg (Mus musculus [29]): 15%
IC50 [30]: 530 nM
Activity (Rattus norvegicus [31]): 95%
IC50 [32]: 21 nM
Tmax [33]: 3 h
AUC(0-inf) [34]: 1150 ng·h/mL
inhibition in vivo at 10 mg/kg (Rattus norvegicus [35]): 17%
IC50 [36]: > 20000 nM
Activity (Rattus norvegicus [37]): 49%
Vd [38]: 7.5 L/kg
IC50 [39]: > 100000 nM
inhibition in vivo at 60 mg/kg (Rattus norvegicus [40]): 90%
IC50 [41]: 200 nM
Cmax [42]: 500 nM
IC50 [43]: 540 nM
Activity (Rattus norvegicus [44]): 15%
IC50 [45]: 150 nM
IC50 [6]: 5100 nM

Cc1cccc(C)c1-n1c(=O)c2cnc(Nc3ccc(OCCN(C)C)cc3)nc2n2c3ccccc3nc12
IC50 [3]: 440 nM
IC50 [4]: > 10000 nM
IC50 (Lymphocyte): 84 nM
IC50 [5]: 28 nM
IC50 [6]: 6600 nM
